Test results published in patent US10351613B2, “Polypeptide for inhibition of tumor” (G-Bio Pharma Tech Co., Ltd., priority 2015, dated 2019).
Values after ≈ are worked out from the molar mass of the structure shown. Residues, ends and D or L forms follow the SMILES beside them.

Legend:
[1] = test system: Human Umbilical Vein Endothelial Cell (HUVEC); type: cell-based; details: for biological activity compared with P2: inhibition of HUVEC and HepG2; for Cell Survival (%) at a polypeptide concentration of 120 μM: 6 h
Protocol: 20 cm umbilical cord adjacent to fetus was taken, cleaned by washing, ligated at both ends, placed into 150 ml preservation solutions for umbilical cord, and stored in a 4° C. refrigerator for digestion for 6 hours. The umbilical cord was inspected to remove the damaged portion. The umbilical vein was thoroughly cleaned by washing and then 10 ml collagenase solution was injected. Then the umbilical vein was transferred to a 37° C. incubator for digestion for 15 minutes. The umbilical cord was removed and the digested solution was recovered. The digested solution was washed by PBS and centrifuged. After centrifugation, the cells were culture by re-suspension.
(§1) Inhibition of cell growth was detected by a MTT method, which is based on the principle that succinate dehydrogenase in the mitochondria of the live cells could reduce the exogenous MTT (3-(4,5-dimethyl-2-thiazolyl)-2,5-diphenyl-tetrazolium bromide) to a […] Formazan which is a blue-violet crystal, and precipitates in the cells, while the death cells could not reduce MTT. DMSO could dissolve Formazan in the cells. Absorbance value of the solution was determined at 490/570 nm by microplate reader, which could indirectly indicate the amount of the live cells. The amount of the crystal from MTT is proportional to the amount of the cells within a certain range of cell number. The supernate from the HUVEC or tumor cells in exponential phase was removed and the cells were washed by PBS once. 1 ml 0.25% trypsin (4° C.) was added for digestion at 37° C. for 2 min. Then the supernate was added for neutralization and the cells were dispersed to form a suspension and the suspension was centrifuged at 1000 rpm for 3 min. The supernate was removed and 5 ml culture mediums were added for resuspension. Cells were inoculated in a 48-well plate by 500 ul/well at the concentration of 3×10^4/ml and then incubated under 5% CO2, 37° C. for 24 hours. The supernate was removed and a culture medium containing polypeptide (Zn^2+ in the culture medium was present at the concentration of 17.39 μmol/L) was added for further incubation for 48 hours. Supernate in each well was carefully removed. The well was gently washed by PBS once in an amount of 450 μl/well. 450 μl MTT culture mediums were added into each well for further cultivation for 4 hours. The supernate was carefully discarded. DMSO was added in an amount of 450 μl/well and then the plate was placed in a shaking bed for oscillation for 10 min in dark. 150 μl supernates were transferred to a 96-well ELISA plate and absorbance value of each well was detected at 490 nm and 570 nm by the microplate reader.

tumor cell HepG2 = type: cell-based
Protocol: as §1

Row | Compound | biological activity compared with P2 [1] | Cell Survival (%) at a polypeptide concentration of 120 μM [1] | also measured
1 | CC[C@H](C)[C@H](NC(=O)CNC(=O)[C@H](CCCNC(=N)N)NC(=O)[C@H](CCSC)NC(=O)CNC(=O)CNC(=O)[C@H](CO)NC(=O)[C@H](CC(C)C)NC(=O)[C@H](CC(N)=O)NC(=O)[C@H](CO)NC(=O)[C@H](CC(N)=O)NC(=O)[C@H](CC(C)C)NC(=O)[C@H](C)NC(=O)[C@@H](NC(=O)[C@H](CC(C)C)NC(=O)[C@H](Cc1c[nH]cn1)NC(=O)[C@H](CC(C)C)NC(=O)[C@@H](NC(=O)[C@@H]1CCCN1C(=O)[C@H](CCC(N)=O)NC(=O)[C@H](Cc1ccccc1)NC(=O)[C@H](CC(=O)O)NC(=O)[C@H](CCCNC(=N)N)NC(=O)[C@H](Cc1c[nH]cn1)NC(=O)[C@H](CO)NC(=O)[C@H](Cc1c[nH]cn1)NC(C)=O)C(C)C)C(C)C)C(=O)N[C@@H](CCCNC(=N)N)C(=O)NCC(=O)N[C@@H](C)C(=O)N[C@@H](CC(=O)O)C(N)=O [Polypeptide P2N18] (Ac-HSHRDFQPVLHLVALNSNLSGGMRGIRGAD-NH2) | lower biological activity than P2 | – | IC50 (ug/ml) HUVEC [1]: 1080.8 µg/mL (≈ 328 µM); Cell Survival (%), 1 mg/ml of polypeptide, HUVEC [1]: 91%; IC50 (ug/ml) HepG2 (tumor cell HepG2): 1387.0 µg/mL (≈ 421 µM); Cell Survival (%), 1 mg/ml of polypeptide, HepG2 (tumor cell HepG2): 85%
2 | CC[C@H](C)[C@H](NC(=O)CNC(=O)[C@H](CCCNC(=N)N)NC(=O)[C@H](CCSC)NC(=O)CNC(=O)CNC(=O)[C@H](CO)NC(=O)[C@H](CC(C)C)NC(=O)[C@H](CO)NC(=O)[C@H](CO)NC(=O)[C@H](CC(N)=O)NC(=O)[C@H](CC(C)C)NC(=O)[C@H](C)NC(=O)[C@@H](NC(=O)[C@H](CC(C)C)NC(=O)[C@H](Cc1c[nH]cn1)NC(=O)[C@H](CC(C)C)NC(=O)[C@@H](NC(=O)[C@@H]1CCCN1C(=O)[C@H](CCC(N)=O)NC(=O)[C@H](Cc1ccccc1)NC(=O)[C@H](CC(=O)O)NC(=O)[C@H](CCCNC(=N)N)NC(=O)[C@H](Cc1c[nH]cn1)NC(=O)[C@H](CO)NC(=O)[C@H](Cc1c[nH]cn1)NC(C)=O)C(C)C)C(C)C)C(=O)N[C@@H](CCCNC(=N)N)C(=O)NCC(=O)N[C@@H](C)C(=O)N[C@@H](CC(=O)O)C(N)=O [Polypeptide P2S18] (Ac-HSHRDFQPVLHLVALNSSLSGGMRGIRGAD-NH2) | lower biological activity than P2 | – | Cell Survival (%), 1 mg/ml of polypeptide, HUVEC [1]: 73%; Cell Survival (%), 1 mg/ml of polypeptide, HepG2 (tumor cell HepG2): 70%
3 | CC(=O)N[C@@H](Cc1c[nH]cn1)C(=O)N[C@H](C(=O)N[C@@H](Cc1c[nH]cn1)C(=O)N[C@@H](CCCNC(=N)N)C(=O)N[C@@H](CC(=O)O)C(=O)N[C@@H](Cc1ccccc1)C(=O)N[C@@H](CCC(N)=O)C(=O)N1CCC[C@H]1C(=O)N[C@H](C(=O)N[C@@H](CC(C)C)C(=O)N[C@@H](Cc1c[nH]cn1)C(=O)N[C@@H](CC(C)C)C(=O)N[C@H](C(=O)N[C@@H](C)C(=O)N[C@@H](CC(C)C)C(N)=O)C(C)C)C(C)C)[C@@H](C)O [Polypeptide P2T2-15, Ac-HTHRDFQPVLHLVAL-NH2] (Ac-HTHRDFQPVLHLVAL-NH2) | – | 95% | –
4 | CC(=O)N[C@@H](Cc1c[nH]cn1)C(=O)N[C@H](C(=O)N[C@@H](Cc1c[nH]cn1)C(=O)N[C@@H](CCCNC(=N)N)C(=O)N[C@@H](CC(=O)O)C(=O)N[C@@H](Cc1ccccc1)C(=O)N[C@@H](CCC(N)=O)C(=O)N1CCC[C@H]1C(=O)N[C@H](C(=O)N[C@@H](CC(C)C)C(=O)N[C@@H](Cc1c[nH]cn1)C(=O)N[C@@H](CC(C)C)C(=O)N[C@H](C(=O)N[C@@H](C)C(=O)N[C@@H](CC(C)C)C(=O)N[C@@H](CC(N)=O)C(=O)N[C@@H](CO)C(=O)N[C@@H](CO)C(=O)N[C@@H](CC(C)C)C(=O)N[C@@H](CO)C(N)=O)C(C)C)C(C)C)[C@@H](C)O [Polypeptide P2T2S18-20] (Ac-HTHRDFQPVLHLVALNSSLS-NH2) | – | 52% | –
5 | CSCC[C@H](NC(=O)CNC(=O)CNC(=O)[C@H](CO)NC(=O)[C@H](CC(C)C)NC(=O)[C@H](CO)NC(=O)[C@H](CO)NC(=O)[C@H](CC(N)=O)NC(=O)[C@H](CC(C)C)NC(=O)[C@H](C)NC(=O)[C@@H](NC(=O)[C@H](CC(C)C)NC(=O)[C@H](Cc1c[nH]cn1)NC(=O)[C@H](CC(C)C)NC(=O)[C@@H](NC(=O)[C@@H]1CCCN1C(=O)[C@H](CCC(N)=O)NC(=O)[C@H](Cc1ccccc1)NC(=O)[C@H](CC(=O)O)NC(=O)[C@H](CCCNC(=N)N)NC(=O)[C@H](Cc1c[nH]cn1)NC(=O)[C@@H](NC(=O)[C@H](Cc1c[nH]cn1)NC(C)=O)[C@@H](C)O)C(C)C)C(C)C)C(=O)N[C@@H](CCCNC(=N)N)C(=O)NCC(N)=O [Polypeptide P2T2S18-25] (Ac-HTHRDFQPVLHLVALNSSLSGGMRG-NH2) | – | 31% | –
6 | CC[C@H](C)[C@H](NC(=O)CNC(=O)[C@H](CCCNC(=N)N)NC(=O)[C@H](CCSC)NC(=O)CNC(=O)CNC(=O)[C@H](CO)NC(=O)[C@H](CC(C)C)NC(=O)[C@H](CO)NC(=O)[C@H](CO)NC(=O)[C@H](CC(N)=O)NC(=O)[C@H](CC(C)C)NC(=O)[C@H](C)NC(=O)[C@@H](NC(=O)[C@H](CC(C)C)NC(=O)[C@H](Cc1c[nH]cn1)NC(=O)[C@H](CC(C)C)NC(=O)[C@@H](NC(=O)[C@@H]1CCCN1C(=O)[C@H](CCC(N)=O)NC(=O)[C@H](Cc1ccccc1)NC(=O)[C@H](CC(=O)O)NC(=O)[C@H](CCCNC(=N)N)NC(=O)[C@H](Cc1c[nH]cn1)NC(=O)[C@@H](NC(=O)[C@H](Cc1c[nH]cn1)NC(C)=O)[C@@H](C)O)C(C)C)C(C)C)C(=O)N[C@@H](CCCNC(=N)N)C(=O)NCC(=O)N[C@@H](C)C(=O)N[C@@H](CC(=O)O)C(=O)N[C@@H](Cc1ccccc1)C(=O)N[C@@H](CCC(N)=O)C(=O)N[C@@H](CS)C(=O)N[C@@H](Cc1ccccc1)C(=O)N[C@@H](CCC(N)=O)C(N)=O [Polypeptide P2T2S18-35] (Ac-HTHRDFQPVLHLVALNSSLSGGMRGIRGADFQCFQ-NH2) | – | 15% | –
7 | CC[C@H](C)[C@H](NC(=O)CNC(=O)[C@H](CCCNC(=N)N)NC(=O)[C@H](CCSC)NC(=O)CNC(=O)CNC(=O)[C@H](CO)NC(=O)[C@H](CC(C)C)NC(=O)[C@H](CO)NC(=O)[C@H](CO)NC(=O)[C@H](CC(N)=O)NC(=O)[C@H](CC(C)C)NC(=O)[C@H](C)NC(=O)[C@@H](NC(=O)[C@H](CC(C)C)NC(=O)[C@H](Cc1c[nH]cn1)NC(=O)[C@H](CC(C)C)NC(=O)[C@@H](NC(=O)[C@@H]1CCCN1C(=O)[C@H](CCC(N)=O)NC(=O)[C@H](Cc1ccccc1)NC(=O)[C@H](CC(=O)O)NC(=O)[C@H](CCCNC(=N)N)NC(=O)[C@H](Cc1c[nH]cn1)NC(=O)[C@@H](NC(=O)[C@H](Cc1c[nH]cn1)NC(C)=O)[C@@H](C)O)C(C)C)C(C)C)C(=O)N[C@@H](CCCNC(=N)N)C(=O)NCC(=O)N[C@@H](C)C(=O)N[C@@H](CC(=O)O)C(=O)N[C@@H](Cc1ccccc1)C(=O)N[C@@H](CCC(N)=O)C(=O)N[C@@H](CS)C(=O)N[C@@H](Cc1ccccc1)C(=O)N[C@@H](CCC(N)=O)C(=O)N[C@@H](CCC(N)=O)C(=O)N[C@@H](C)C(=O)N[C@@H](CCCNC(=N)N)C(=O)N[C@@H](C)C(=O)N[C@H](C(N)=O)C(C)C [Polypeptide P2T2S18-40] (Ac-HTHRDFQPVLHLVALNSSLSGGMRGIRGADFQCFQQARAV-NH2) | – | 49% | –
8 | Ac-HTHRDFQPVLHLVALNSSLSGGMRGIRGA-NH2 [Polypeptide P2T2S18-29] | siginficalty higher than P2 | – | –
9 | Ac-HTHRDFQPVLHLVALNSSLSGGMRGIRGADFQCFQQARAVGLAGT-NH2 [Polypeptide P2T2S18-45] | – | 80% | –
